pIC50: −log10 of the molar value. “And” between values parts separate entries of the source, which are not always exact repeats. Equal values may be shown once.
Tested on: 855422-203-R-J1-PDC spheroids with HUVEC/MSC, viability
Experiment: Anticancer human tumor 855422-203-R-J1-PDC patient-derived bladder carcinoma cell line growth inhibition [PI3K]
Settings: for viability, T/C: stronger effect = lower value
Excerpt: Combinatorial screen of targeted agents with the PI3K inhibitors inavolisib, alpelisib, duvelisib, and copanlisib in multi-cell type tumor spheroids
A high-throughput screen of multi-cell type tumor spheroids was designed to identify active combinations of targeted small molecules and PI3K pathway inhibitors. Complex spheroids include a stromal component modeled by human endothelial cells (HUVEC) and fibroblasts modeled by human mesenchymal stem cells (MSCs). The concentration ranges selected for each drug and investigational agent were based upon clinically achievable concentrations if the clinical Cmax of the agent was known.
Compounds. The drugs and investigational agents: inavolisib (NSC800729), alpelisib (NSC765974), duvelisib (NSC772469), copanlisib (NSC816437), ipatasertib (NSC767898), afuresertib (NSC778305), talazoparib (NSC767125), sapanisertib (NSC764658), selumetinib (NSC741078), tovorafenib (DAY101, NSC766906), vemurafenib (NSC761431), ravoxertinib (NSC781343), sotorasib (NSC818433), MRTX1133 (NSC 836407), abemaciclib (NSC 768073), palbociclib (NSC758247), venetoclax (NSC 766270), SY5609 (NSC837396), enzalutamide (NSC755605), and darolutamide (NSC825331), were obtained from the National Cancer Institute (NCI) Developmental Therapeutics Program Chemical Repository. The FDA-approved anticancer drug set is available from the NCI Developmental Therapeutics Program. […] The stock solutions were prepared in dimethyl sulfoxide (DMSO, Sigma-Aldrich, St. Louis, MO, cat. D2650) at 800-fold the tested concentration and stored at -70 degrees C prior to their use. All drugs and investigational agents were tested over a range starting from a high concentration at or near the clinical Cmax and decreasing in half-log increments. If the clinical Cmax for an agent had not been determined, the highest concentration tested was 10 microM.
Cell Culture. All cells were maintained in an incubator at 37 degrees C and 5% CO2 with 95% humidity. The PDC lines were cultured according to standard operating procedures established by the NCI PDMR (https://pdmr.cancer.gov/sops/default.htm). All PDCs were thawed and cultured in Matrigel-coated flasks prepared with a working solution of 1X Ham's F-12 nutrient mix, without supplementation (Invitrogen, Waltham, MA, cat. 11765054), 100 U/mL penicillin-streptomycin (Invitrogen, cat. 15140122), and 2.5% Matrigel (Corning Inc., Corning, NY, cat. 354248) for the first three passages. The 354836-022-R-J1-PDC, 475296-252-R-J1-PDC, and 997726-040-R-J2-PDC lines were cultured in 6A media, which includes advanced DMEM/F-12 (Thermo Fisher Scientific, cat. 12634028), 10 mM HEPES (Thermo Fisher Scientific, cat. 15630080), 1X GlutaMAX supplement (Thermo Fisher Scientific, cat. 35050061), 0.1 mg/mL primocin (InvivoGen, San Diego, CA, cat. ant-pm-2), 10% defined fetal bovine serum, heat inactivated (HyClone Laboratories Inc., Logan, UT, cat. SH30070.03HI), 50% L-WRN conditioned media (ATCC, cat. CRL-3276), 1.25 mM N-Acetyl-L-cysteine (Sigma-Aldrich, cat. A9165), 10 mM nicotinamide (Sigma-Aldrich, cat. N0636), 1X B-27 supplement (Thermo Fisher Scientific, cat. 17504044), 1X N-2 supplement (Thermo Fisher Scientific, cat. 17502048), and 10 microM Y-27632 dihydrochloride (Tocris Bioscience, Bristol, United Kingdom, cat. 1254). The 624824-186-R-J2-PDC line was cultured in 6C/Colon 1B media, which includes all 6A media components plus 50 ng/mL human EGF recombinant protein (Thermo Fisher Scientific, cat. PHG0311). […]
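Further: agents incubated with spheroids for one week before read-out.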
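Wherever viability, T/C is given: 100% = DMSO vehicle-treated control wells.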

`C#Cc1c(F)ccc2cc(O)cc(-c3ncc4c(N5CC6CCC(C5)N6)nc(OCC56CCCN5CC(F)C6)nc4c3F)c12` (configuration not stated) was tested, and the viability, T/C (compound 0.0316 µM) was 110% [middle of 4 runs], the viability, T/C (compound 0.1 µM) was 101% (2×) and 94.4% and 83.5% and the viability, T/C (compound 0.316 µM) was 109% [middle of 4 runs]. For the same molecule, the viability, T/C (compound 1 µM) was 103% [middle of 4 runs], the viability, T/C (compound 3.16 µM) was 109% [middle of 4 runs] and the viability, T/C (compound 10 µM) was 114% (2×) and 107% and 112%. For the same molecule, the pIC50 (curve of compound) was < 5.00.
For `CCCS(=O)(=O)Nc1ccc(F)c(C(=O)c2c[nH]c3ncc(-c4ccc(Cl)cc4)cc23)c1F`, the viability, T/C (compound 0.1 µM) was 96.7% [middle of 4 runs], the viability, T/C (compound 0.316 µM) was 108% (2×) and 99.2% and 92.2% and the viability, T/C (compound 1 µM) was 87.6% [middle of 4 runs]. For the same molecule, the viability, T/C (compound 3.16 µM) was 65.7% [middle of 4 runs], the viability, T/C (compound 10 µM) was 0.53% [middle of 4 runs] and the IC50 (curve of compound) was 4.16 µM [middle of 4 runs].
In the case of `Cn1ncc(Cl)c1-c1cc(C(=O)NC(CN)Cc2cccc(F)c2)sc1Cl` (configuration not stated), the viability, T/C (compound 0.0316 µM) was 93.2% [middle of 4 runs], the viability, T/C (compound 0.1 µM) was 75.2% [middle of 4 runs] and the viability, T/C (compound 0.316 µM) was 69.4% [middle of 4 runs]. For the same molecule, the viability, T/C (compound 1 µM) was 49.7% [middle of 4 runs], the viability, T/C (compound 3.16 µM) was 28.2% [middle of 4 runs] and the viability, T/C (compound 10 µM) was 8.18% [middle of 4 runs]. The IC50 (curve of compound) was 936 nM [middle of 4 runs].
Work on `Cn1cnc2c(F)c(Nc3ccc(Br)cc3Cl)c(C(=O)NOCCO)cc21` + CC(Nc1ccc2c(c1)OCCn1cc(N3C(=O)OCC3C(F)F)nc1-2)C(N)=O yielded a pIC50 (curve of first compound, second compound 0.00316 µM) of 5.64, a pIC50 (curve of first compound, second compound 0.01 µM) of 5.67 and a pIC50 (curve of first compound, second compound 0.0316 µM) of 5.73. For the same molecule, the pIC50 (curve of first compound, second compound 0.1 µM) was 6.11, the pIC50 (curve of first compound, second compound 0.316 µM) was > 8.02 and the pIC50 (curve of first compound, second compound 1 µM) was > 8.02. For the same molecule, the viability, T/C (second compound 0.00316 µM, first compound 0.00949 µM) was 91.7%, the viability, T/C (second compound 0.00316 µM, first compound 0.03 µM) was 83.8% and the viability, T/C (second compound 0.00316 µM, first compound 0.0949 µM) was 104%. It also gave a viability, T/C (second compound 0.00316 µM, first compound 0.3 µM) of 83.2%, a viability, T/C (second compound 0.00316 µM, first compound 0.949 µM) of 82.5% and a viability, T/C (second compound 0.00316 µM, first compound 3 µM) of 39.8%. For the same molecule, the viability, T/C (second compound 0.01 µM, first compound 0.00949 µM) was 95.9%, the viability, T/C (second compound 0.01 µM, first compound 0.03 µM) was 89.1% and the viability, T/C (second compound 0.01 µM, first compound 0.0949 µM) was 97.7%. For the same molecule, the viability, T/C (second compound 0.01 µM, first compound 0.3 µM) was 81.4%, the viability, T/C (second compound 0.01 µM, first compound 0.949 µM) was 80.9% and the viability, T/C (second compound 0.01 µM, first compound 3 µM) was 37.9%. It also gave a viability, T/C (second compound 0.0316 µM, first compound 0.00949 µM) of 81%, a viability, T/C (second compound 0.0316 µM, first compound 0.03 µM) of 83.4% and a viability, T/C (second compound 0.0316 µM, first compound 0.0949 µM) of 91.5%. The viability, T/C (second compound 0.0316 µM, first compound 0.3 µM) was 92.3%, the viability, T/C (second compound 0.0316 µM, first compound 0.949 µM) was 75% and the viability, T/C (second compound 0.0316 µM, first compound 3 µM) was 32.6%. For the same molecule, the viability, T/C (second compound 0.1 µM, first compound 0.00949 µM) was 64.9%, the viability, T/C (second compound 0.1 µM, first compound 0.03 µM) was 67.1% and the viability, T/C (second compound 0.1 µM, first compound 0.0949 µM) was 67.3%. The viability, T/C (second compound 0.1 µM, first compound 0.3 µM) was 71.3%, the viability, T/C (second compound 0.1 µM, first compound 0.949 µM) was 46% and the viability, T/C (second compound 0.1 µM, first compound 3 µM) was 22.2%. It also gave a viability, T/C (second compound 0.316 µM, first compound 0.00949 µM) of 47.6%, a viability, T/C (second compound 0.316 µM, first compound 0.03 µM) of 45.7% and a viability, T/C (second compound 0.316 µM, first compound 0.0949 µM) of 47.3%. The viability, T/C (second compound 0.316 µM, first compound 0.3 µM) was 38.3%, the viability, T/C (second compound 0.316 µM, first compound 0.949 µM) was 28.6% and the viability, T/C (second compound 0.316 µM, first compound 3 µM) was 9.16%. For the same molecule, the viability, T/C (second compound 1 µM, first compound 0.00949 µM) was 30.4%, the viability, T/C (second compound 1 µM, first compound 0.03 µM) was 28.1% and the viability, T/C (second compound 1 µM, first compound 0.0949 µM) was 25.3%. It also gave a viability, T/C (second compound 1 µM, first compound 0.3 µM) of 21.3%, a viability, T/C (second compound 1 µM, first compound 0.949 µM) of 16.1% and a viability, T/C (second compound 1 µM, first compound 3 µM) of 4.67%.

Reference: PubChem BioAssay AID1963967 (Molecular Pharmacology Branch, DTP, NCI, 2024)
